According to patent publication US11939377B2, “Affinity matured CD22-specific monoclonal antibody and uses thereof” (The U.S.A., as represented by the Secretary, Department of …, priority 2018, dated 2024):

Tests used:
[1] = tested on: CD22 expression on ALL and DLBCL cell lines (Nalm6, Kopn8, SEM, Pfeiffer, Toledo, PDX); settings: Biberacher et al. 2012; cited from earlier work
Nalm6 leukemia cells = experiment: CD22 expression on Nalm6 in NSG mice after a single dose of Bryostatin 1; assay type: in vivo; settings: single dose I.P.
Experimental: (§1) FIGS. 3A-3D: (FIG. 3A) Four cell lines (Nalm6, Kopn8, Pfieffer and Toldeo) were co-incubated with 1 ng/ml Bryostatin 1 for 24 hours and analyzed using flow cytometry one day after Bryostatin 1 exposure. Site density was analyzed using standardized Quantibrite-PE beads. (FIG. 3B) Cell lines were co-incubated with 1 ng/ml Bryostatin 1 for 24 hours, washed, and analyzed using flow cytometry at 1 and 7 days after Bryostatin 1 exposure. Fold change was calculated based on site density: (Cell line Bryostatin 1—Cell line DMSO)/Cell line DMSO. (FIG. 3C) NSG mice were injected with 1×10^6 GPF-positive Nalm6 leukemia cells on Day 0. Bryostatin 1 was administered at 0.8 μg/kg on Day 3. Mice were sacrificed 7 and 12 days after Bryostatin 1 injection and CD22 was evaluated by flow cytometry. (FIG. 3D) CD22-low relapse PDX cell line was cultured in vitro with 1 nmol/L Bryostatin 1 for 24 hours and measured for CD22 expression using CD22 antibody. […]
(§2) FACS analysis of cell surface CAR and protein expression was performed using an LSR II Fortessa flow cytometer (BD Biosciences). CD22-CAR was detected by incubation with 22-Fc (R&D Systems), followed by incubation with human IgG-specific PE-F(ab)2 (Thermo Fisher Scientific). […] CD22 site density was determined using QuantiBrite-PE beads (BD Biosciences) using methods previously described (Jasper et al., Cytometry B Clin Cytom 80(2):83-90, 2011). […]

[2] = tested on: CD19 expression on ALL and DLBCL cell lines; experiment: CD19 expression on cell lines by flow cytometry after Bryostatin 1 exposure; assay type: cell-based, human; settings: 1 ng/ml, 24 hours
Experimental: as §1, §2

KOPN8 and SEM cell lines = experiment: RNA sequencing of Bryostatin 1-treated ALL cell lines; assay type: cell-based, human
Experimental: FIGS. 4A-4E: (FIGS. 4A-4B) KOPN8 or SEM cell lines were exposed to Bryostatin 1 for 16, 24, 48, or 72 hours. RNA was extracted from cells and analyzed using RNAseq. (FIGS. 4C-4E) Cell lines were co-incubated with 1 ng/ml of Bryostatin 1 for 24 hours. […] IL-2 (FIG. 4C), IFN-γ (FIG. 4D), and granzyme B (FIG. 4E) were measured by ELISA from cell culture supernatants. Statistical significance was calculated using an unpaired t-test (**** p<0.0001, *** p<0.0002, ** p<0.0021, * p<0.0332).
Sixteen RNA-seq samples were pooled and sequenced on one NextSeq high output run using Illumina TruSeq Poly A RNA Kit v3 with paired end sequencing. All samples had greater than 30 million pass filter reads with a base call quality above 95% of bases with Q30 and above. Reads of the samples were trimmed for adapters and low-quality bases using Trimmomatic software before alignment with the reference genome Human—hg19 and the annotated transcripts using STAR. The mapping quality statistics were calculated using Picard software and library complexity was measured in terms of unique fragments in the mapped reads using Picard's MarkDuplicate utility. The Partek Flow informatics pipeline was used to generate fold change and differentially expressed gene data as well as for data visualization. Gene set enrichment analysis (GSEA) of the differentially expressed genes was performed as previously described and using standard parameters.

SMILES: CCC/C=C/C=C/C(=O)O[C@H]1/C(=C/C(=O)OC)C[C@H]2C[C@H]([C@@H](C)O)OC(=O)C[C@H](O)C[C@@H]3C[C@H](OC(C)=O)C(C)(C)[C@](O)(C[C@@H]4C/C(=C/C(=O)OC)C[C@H](/C=C/C(C)(C)[C@]1(O)O2)O4)O3 [Bryostatin 1]
- CD22 expression on chronic lymphocytic leukemia (CLL) [1]: increase CD22 expression
- CD22 MFI on Nalm6 in vivo (Nalm6 leukemia cells; 1 week): increased
- CD22 expression on Nalm6 in vivo (Nalm6 leukemia cells; 12 days post-drug administration): return to baseline expression
- CD19 expression on ALL [2]: did not alter
- CD19 expression on DLBCL [2]: modest increase
- genes with 2-fold increased expression versus control (KOPN8 and SEM cell lines; KOPN8): 756 genes
- genes with a greater than 2-fold change (KOPN8 and SEM cell lines; KOPN8, 24 hours): 1524 genes
- CD22 mRNA over the course of treatment (KOPN8 and SEM cell lines; KOPN8 and SEM, 16, 24, 48, 72 hours): Neither cell line showed changes
- genes with a 2-fold change (KOPN8 and SEM cell lines; SEM): only one gene
